Results as given in patent publication US20200316230A1, “DEVICES AND METHODS FOR RADIOPHARMACEUTICAL SYNTHESIS” (VANDERBILT UNIVERSITY, priority 2019, published 2020).

Assay: microPET imaging of rat brain with [^18F]fallypride produced in the microfluidic chip
Type: in vivo
Conditions: microPET for about 2 hours, dose of about 300 μCi injected
Text: To further verify the utility of the resulting [^18F]fallypride, we produced (using the integrated microfluidic chip) a dose of about 300 μCi with about 19.55 Ci/μmol (723.35 GBq/μmol) of specific activity and about 98.62% of radiochemical purity, and obtained PET data from a rat brain. The time point used to calculate the specific activity was at the end of production, namely the time when the purified [^18F]fallypride was retrieved from chip. The rat was brought to the imaging lab to habituate about 3 hours prior to imaging. Sbout 0.1 ml purified [^18F] fallypride was filtered through an about 0.45 μm filter (Millex-HV) and about 0.9 ml saline was added to formulate the PET probe used for rat injection. […] The accumulation and pharmacokinetics of [^18F]fallypride were as expected when evaluated in the rat brain.

- accumulation and pharmacokinetics of [^18F]fallypride in the rat brain: as expected
Structure (SMILES): C=CCN1CCC[C@H]1CNC(=O)c1cc(CCC[18F])cc(OC)c1OC [[^18F]fallypride]
